Assay results reported in article PMC8213057, “Targeting ALK2: An Open Science Approach to Developing Therapeutics for the Treatment of Diffuse Intrinsic Pontine Glioma” (Journal of Medicinal Chemistry, 2020).

Tests used:
ZIPK/DAPK3 = ZIPK/DAPK3 (Homo sapiens, UniProt O43293); settings: 1 μM; Run 1, Run 2
TYRO3/SKY = molecular target: T1, TYRO3/SKY (Homo sapiens, UniProt Q06418); experiment: biochemical; settings: read-out: % enzyme activity, 1 μM; Run 1, Run 2
T1 sequence (Q06418 41-890): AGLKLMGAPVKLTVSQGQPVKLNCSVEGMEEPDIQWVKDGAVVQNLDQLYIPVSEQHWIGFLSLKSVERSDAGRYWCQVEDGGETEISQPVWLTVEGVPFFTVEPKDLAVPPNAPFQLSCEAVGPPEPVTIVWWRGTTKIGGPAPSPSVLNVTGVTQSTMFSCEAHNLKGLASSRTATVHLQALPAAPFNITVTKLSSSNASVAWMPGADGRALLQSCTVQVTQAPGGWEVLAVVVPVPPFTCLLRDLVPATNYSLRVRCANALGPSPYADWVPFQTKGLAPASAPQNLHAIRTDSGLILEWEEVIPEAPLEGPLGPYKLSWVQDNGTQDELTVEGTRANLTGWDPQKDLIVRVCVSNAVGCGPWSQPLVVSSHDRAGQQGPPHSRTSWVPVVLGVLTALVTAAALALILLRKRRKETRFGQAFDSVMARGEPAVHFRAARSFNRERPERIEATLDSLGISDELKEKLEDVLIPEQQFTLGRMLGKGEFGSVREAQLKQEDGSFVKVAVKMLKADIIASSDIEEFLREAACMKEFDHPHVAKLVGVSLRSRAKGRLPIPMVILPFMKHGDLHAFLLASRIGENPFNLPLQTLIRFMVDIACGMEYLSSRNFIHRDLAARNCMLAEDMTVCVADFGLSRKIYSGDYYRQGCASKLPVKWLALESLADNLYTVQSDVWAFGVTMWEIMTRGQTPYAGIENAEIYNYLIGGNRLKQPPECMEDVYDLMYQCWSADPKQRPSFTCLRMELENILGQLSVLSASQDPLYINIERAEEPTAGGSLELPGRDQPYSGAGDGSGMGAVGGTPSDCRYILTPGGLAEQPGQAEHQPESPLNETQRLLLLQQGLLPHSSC

p70S6Kb/RPS6KB2 = p70S6Kb/RPS6KB2 (Homo sapiens, UniProt Q9UBS0); settings: 1 μM; Run 1, Run 2
p70S6Kb/RPS6KB2, sequence (Q9UBS0 whole entry): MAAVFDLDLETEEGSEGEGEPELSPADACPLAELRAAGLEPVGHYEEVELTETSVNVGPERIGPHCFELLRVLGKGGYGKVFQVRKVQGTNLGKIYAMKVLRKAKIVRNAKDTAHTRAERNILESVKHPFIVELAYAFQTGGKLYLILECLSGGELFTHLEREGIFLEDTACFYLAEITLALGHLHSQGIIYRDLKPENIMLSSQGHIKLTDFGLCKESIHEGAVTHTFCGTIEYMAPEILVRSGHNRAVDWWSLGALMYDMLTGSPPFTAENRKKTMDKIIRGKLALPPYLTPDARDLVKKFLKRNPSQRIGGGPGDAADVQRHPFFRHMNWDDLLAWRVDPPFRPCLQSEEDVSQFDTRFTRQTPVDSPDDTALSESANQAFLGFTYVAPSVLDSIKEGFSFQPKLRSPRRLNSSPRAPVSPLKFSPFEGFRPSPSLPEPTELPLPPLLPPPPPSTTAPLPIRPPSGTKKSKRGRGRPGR

GSK3b = GSK3b (Homo sapiens, UniProt P49841); experiment: biochemical; settings: read-out: % enzyme activity, 1 μM; Run 1, Run 2
GSK3b, sequence (P49841 whole entry): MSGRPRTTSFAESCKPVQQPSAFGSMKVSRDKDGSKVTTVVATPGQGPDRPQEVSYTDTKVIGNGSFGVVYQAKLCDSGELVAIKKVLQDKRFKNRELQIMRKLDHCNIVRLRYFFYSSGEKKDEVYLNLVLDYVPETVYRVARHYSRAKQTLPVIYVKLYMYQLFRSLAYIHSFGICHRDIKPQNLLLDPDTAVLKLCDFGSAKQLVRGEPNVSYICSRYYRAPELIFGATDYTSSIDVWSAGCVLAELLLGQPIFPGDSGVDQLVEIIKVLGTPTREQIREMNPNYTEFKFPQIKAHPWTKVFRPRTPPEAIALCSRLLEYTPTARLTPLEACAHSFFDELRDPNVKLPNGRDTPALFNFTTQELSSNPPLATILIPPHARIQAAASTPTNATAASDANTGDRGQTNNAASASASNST

BMPR2 = molecular target: T2, BMPR2 (Homo sapiens, UniProt Q13873); experiment: 375-member kinase panel; type: biochemical; settings: Run 1, Run 2; for % enzyme activity: 1 μM; for remaining activity at 1 µM: read-out: % enzyme activity, 1 μM
T2 construct: purchased Reaction Biology Corporation
T2 sequence (Q13873 27-1038): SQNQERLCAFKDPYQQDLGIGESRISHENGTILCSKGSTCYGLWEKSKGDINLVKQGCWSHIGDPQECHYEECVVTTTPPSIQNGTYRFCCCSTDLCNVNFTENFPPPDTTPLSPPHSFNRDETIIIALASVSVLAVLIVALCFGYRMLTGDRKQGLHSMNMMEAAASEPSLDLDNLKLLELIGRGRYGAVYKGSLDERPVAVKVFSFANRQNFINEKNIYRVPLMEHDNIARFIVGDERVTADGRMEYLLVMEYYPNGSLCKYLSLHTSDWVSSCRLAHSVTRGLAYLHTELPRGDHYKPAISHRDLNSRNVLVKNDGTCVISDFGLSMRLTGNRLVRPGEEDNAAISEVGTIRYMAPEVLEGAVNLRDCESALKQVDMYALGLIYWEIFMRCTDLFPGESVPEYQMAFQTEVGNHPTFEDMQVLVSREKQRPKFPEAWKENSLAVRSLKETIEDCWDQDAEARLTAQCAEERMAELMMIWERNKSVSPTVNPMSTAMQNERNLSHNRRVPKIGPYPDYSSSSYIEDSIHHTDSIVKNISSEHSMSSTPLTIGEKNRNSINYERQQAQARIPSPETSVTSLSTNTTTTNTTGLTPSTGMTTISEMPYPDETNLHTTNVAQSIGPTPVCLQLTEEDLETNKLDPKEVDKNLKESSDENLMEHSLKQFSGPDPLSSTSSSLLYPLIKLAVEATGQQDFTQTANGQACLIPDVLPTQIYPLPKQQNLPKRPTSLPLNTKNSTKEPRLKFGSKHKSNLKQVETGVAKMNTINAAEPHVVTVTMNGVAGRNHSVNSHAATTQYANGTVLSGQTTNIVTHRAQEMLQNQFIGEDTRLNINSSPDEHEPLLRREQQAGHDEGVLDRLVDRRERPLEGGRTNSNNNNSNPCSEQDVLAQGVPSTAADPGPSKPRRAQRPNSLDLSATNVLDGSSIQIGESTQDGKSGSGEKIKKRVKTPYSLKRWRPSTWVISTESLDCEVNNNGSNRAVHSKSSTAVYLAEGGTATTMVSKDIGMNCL

FGFR1 = FGFR1 (Homo sapiens, UniProt P11362); experiment: biochemical; settings: read-out: % enzyme activity, 1 μM; Run 1, Run 2
FGFR1, sequence (P11362 22-822): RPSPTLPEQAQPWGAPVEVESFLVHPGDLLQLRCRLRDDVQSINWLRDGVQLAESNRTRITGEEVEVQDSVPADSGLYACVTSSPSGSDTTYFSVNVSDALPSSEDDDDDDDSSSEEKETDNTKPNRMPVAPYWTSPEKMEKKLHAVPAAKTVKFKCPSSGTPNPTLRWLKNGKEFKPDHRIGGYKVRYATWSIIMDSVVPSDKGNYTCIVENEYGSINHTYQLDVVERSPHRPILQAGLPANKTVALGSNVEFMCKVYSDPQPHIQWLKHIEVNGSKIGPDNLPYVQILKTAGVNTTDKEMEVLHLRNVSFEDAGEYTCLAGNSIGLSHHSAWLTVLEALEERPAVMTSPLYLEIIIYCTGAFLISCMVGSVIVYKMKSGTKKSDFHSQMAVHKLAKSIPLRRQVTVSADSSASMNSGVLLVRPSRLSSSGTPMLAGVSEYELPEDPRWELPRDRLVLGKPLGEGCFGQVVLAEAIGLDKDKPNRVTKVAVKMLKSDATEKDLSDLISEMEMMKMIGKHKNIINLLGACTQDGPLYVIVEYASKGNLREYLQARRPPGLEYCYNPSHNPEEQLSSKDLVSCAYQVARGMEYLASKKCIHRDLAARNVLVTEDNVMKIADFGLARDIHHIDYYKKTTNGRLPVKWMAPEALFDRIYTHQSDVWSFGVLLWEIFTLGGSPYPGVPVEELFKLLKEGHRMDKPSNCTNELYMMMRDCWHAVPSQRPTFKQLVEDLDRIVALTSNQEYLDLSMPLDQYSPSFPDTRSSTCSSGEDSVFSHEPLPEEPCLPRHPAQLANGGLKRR

CDK2/cyclin E = CDK2/cyclin E (Homo sapiens, UniProt P24941); settings: 1 μM; Run 1, Run 2
Aurora C = molecular target: T3, Aurora C (Homo sapiens, UniProt Q9UQB9); settings: 1 μM; Run 1, Run 2
T3 sequence (Q9UQB9 1-309): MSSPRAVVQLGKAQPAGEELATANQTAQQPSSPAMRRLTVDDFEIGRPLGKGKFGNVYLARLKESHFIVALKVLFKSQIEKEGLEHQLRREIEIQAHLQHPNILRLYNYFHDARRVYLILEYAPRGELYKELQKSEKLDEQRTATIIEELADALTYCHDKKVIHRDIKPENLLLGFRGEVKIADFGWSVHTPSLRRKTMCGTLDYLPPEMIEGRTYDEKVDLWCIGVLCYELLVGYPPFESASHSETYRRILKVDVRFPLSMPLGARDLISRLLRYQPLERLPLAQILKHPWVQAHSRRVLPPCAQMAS

PAK5 = PAK5 (Homo sapiens, UniProt Q9P286); experiment: biochemical; settings: read-out: % enzyme activity, 1 μM; Run 1, Run 2
PAK5, sequence (Q9P286 whole entry): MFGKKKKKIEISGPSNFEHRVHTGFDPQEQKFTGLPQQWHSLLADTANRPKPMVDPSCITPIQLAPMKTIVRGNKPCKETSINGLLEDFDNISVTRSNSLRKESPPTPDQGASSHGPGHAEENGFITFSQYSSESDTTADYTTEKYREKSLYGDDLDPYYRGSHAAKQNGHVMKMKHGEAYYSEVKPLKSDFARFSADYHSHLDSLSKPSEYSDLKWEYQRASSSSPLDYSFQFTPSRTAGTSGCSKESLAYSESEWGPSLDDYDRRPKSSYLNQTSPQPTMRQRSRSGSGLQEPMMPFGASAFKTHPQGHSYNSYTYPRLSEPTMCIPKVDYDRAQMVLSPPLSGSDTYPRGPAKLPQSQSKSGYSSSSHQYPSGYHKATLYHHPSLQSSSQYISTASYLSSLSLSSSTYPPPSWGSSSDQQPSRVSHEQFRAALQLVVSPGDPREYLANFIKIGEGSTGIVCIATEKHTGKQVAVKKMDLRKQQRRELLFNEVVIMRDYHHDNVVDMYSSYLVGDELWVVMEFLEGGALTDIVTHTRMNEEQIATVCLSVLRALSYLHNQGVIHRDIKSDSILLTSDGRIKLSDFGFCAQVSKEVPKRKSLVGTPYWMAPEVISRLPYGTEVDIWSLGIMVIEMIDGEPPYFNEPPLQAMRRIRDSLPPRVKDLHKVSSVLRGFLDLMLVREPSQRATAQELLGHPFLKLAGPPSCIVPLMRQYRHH

ZIPK/DAPK3, sequence (O43293 whole entry): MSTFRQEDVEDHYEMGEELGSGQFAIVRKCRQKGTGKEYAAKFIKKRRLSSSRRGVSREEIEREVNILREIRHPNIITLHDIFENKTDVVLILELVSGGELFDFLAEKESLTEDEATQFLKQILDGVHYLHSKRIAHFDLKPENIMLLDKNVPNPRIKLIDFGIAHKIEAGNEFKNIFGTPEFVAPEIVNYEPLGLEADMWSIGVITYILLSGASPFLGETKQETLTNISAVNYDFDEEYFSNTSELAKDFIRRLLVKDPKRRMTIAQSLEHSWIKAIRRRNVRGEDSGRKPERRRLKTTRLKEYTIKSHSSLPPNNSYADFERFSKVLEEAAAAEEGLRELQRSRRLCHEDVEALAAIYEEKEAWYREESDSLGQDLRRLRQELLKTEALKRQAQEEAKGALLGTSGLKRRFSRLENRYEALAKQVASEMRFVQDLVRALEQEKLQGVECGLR

Row | SMILES | % enzyme activity (ZIPK/DAPK3) [%] | remaining activity at 1 µM (TYRO3/SKY) [%] | % enzyme activity (p70S6Kb/RPS6KB2) [%] | remaining activity at 1 µM (GSK3b) [%] | % enzyme activity (BMPR2) [%] | remaining activity at 1 µM (BMPR2) [%] | remaining activity at 1 µM (FGFR1) [%] | % enzyme activity (CDK2/cyclin E) [%] | % enzyme activity (Aurora C) [%] | remaining activity at 1 µM (PAK5) [%]
1 | COc1cc(-c2cncc(-c3ccc(N4CCN(C)CC4)cc3)c2C)cc(F)c1C(N)=O [Compound 26a, 2-Fluoro-6-methoxy-4-(4-methyl-5-(4-(4-methylpiperazin-1-yl)phenyl)pyridin-3-yl)benzamide] | 103.31 | 84.1 | 97.21 | 88.5 | 88.40 | 89.1 | 97.4 | 104.52 | 103.00 | 94.6
2 | COc1cc(-c2cncc(-c3ccc(N4C[C@@H](C)N(C)[C@@H](C)C4)cc3)c2C)cc(F)c1C(N)=O [Compound 26c, 2-Fluoro-6-methoxy-4-(4-methyl-5-(4-((3R,5S)-3,4,5-trimethylpiperazin-1-yl)phenyl)pyridin-3-yl)benzamide] | 102.34 | 94.5 | 99.09 | 88.8 | 100.11 | 104 | 101 | 102.10 | 99.34 | 97.3
